Measurements published in patent publication US20260125346A1, “Isoquinolinone Derivatives and 4H-Quinolizinone Derivatives and Pharmaceutical Compositions Thereof for the Treatment of Disease” (BeOne Medicines I GmbH, priority 2023, published 2026).

Key:
[1] = target: PI3Kα (p110/p85) kinase (wild type, "WT") (Homo sapiens, UniProt P42336); assay: PI3Kα (p110/p85) kinase ADP-Glo Assay; assay type: biochemical; settings: 25 uM ATP
Outline: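 IC50 values come from a four-parameter logistic fit of ADP-Glo chemiluminescence, reflecting ADP formed. Enzyme, lipid substrate and […] compound were preincubated 30 min at room temperature, then 25 µM ATP was added for a 120 min reaction in 50 mM HEPES pH7.5, 3 mM MgCl2.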

[2] = target: PI3Kα (p110[H1047R]/p85) kinase (Homo sapiens, UniProt P42336, H1047R); assay: PI3Kα (p110[H1047R]/p85) kinase ADP-Glo Assay; assay type: biochemical; settings: 25 uM ATP; for selectivity: WT/H1047R: ADP-Glo Assay IC50 ratio
PI3Kα (p110[H1047R]/p85) kinase, sequence (P42336 whole entry H1047R): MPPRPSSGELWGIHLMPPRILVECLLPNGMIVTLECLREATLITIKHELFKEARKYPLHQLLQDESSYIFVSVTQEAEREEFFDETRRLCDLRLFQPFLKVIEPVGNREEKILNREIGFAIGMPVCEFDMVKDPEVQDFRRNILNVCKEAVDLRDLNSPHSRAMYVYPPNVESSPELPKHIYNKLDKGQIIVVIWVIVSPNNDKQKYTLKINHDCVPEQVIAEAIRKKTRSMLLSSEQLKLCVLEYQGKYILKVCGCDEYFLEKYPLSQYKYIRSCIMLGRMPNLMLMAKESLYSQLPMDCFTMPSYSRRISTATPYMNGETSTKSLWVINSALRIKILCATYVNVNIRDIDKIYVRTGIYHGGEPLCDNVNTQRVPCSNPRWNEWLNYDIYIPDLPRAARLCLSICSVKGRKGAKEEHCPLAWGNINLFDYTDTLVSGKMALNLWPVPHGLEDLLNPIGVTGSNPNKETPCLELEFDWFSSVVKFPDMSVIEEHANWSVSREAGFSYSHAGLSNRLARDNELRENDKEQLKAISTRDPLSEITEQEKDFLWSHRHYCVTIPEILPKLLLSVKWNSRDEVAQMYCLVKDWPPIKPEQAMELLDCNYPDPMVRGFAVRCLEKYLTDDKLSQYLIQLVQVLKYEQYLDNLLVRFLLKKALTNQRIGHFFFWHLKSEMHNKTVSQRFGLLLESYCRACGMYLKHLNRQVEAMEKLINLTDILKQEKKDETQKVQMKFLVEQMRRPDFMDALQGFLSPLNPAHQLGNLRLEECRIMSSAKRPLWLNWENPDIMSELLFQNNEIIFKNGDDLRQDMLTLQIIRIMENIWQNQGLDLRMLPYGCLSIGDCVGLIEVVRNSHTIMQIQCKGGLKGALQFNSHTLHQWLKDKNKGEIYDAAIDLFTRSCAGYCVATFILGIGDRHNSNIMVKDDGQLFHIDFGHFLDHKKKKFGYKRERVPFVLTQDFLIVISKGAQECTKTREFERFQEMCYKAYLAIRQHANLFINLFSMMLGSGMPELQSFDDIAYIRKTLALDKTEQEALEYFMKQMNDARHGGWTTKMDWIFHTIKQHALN
PI3Kα (p110[H1047R]/p85) kinase, sequence (P27986 whole entry partner): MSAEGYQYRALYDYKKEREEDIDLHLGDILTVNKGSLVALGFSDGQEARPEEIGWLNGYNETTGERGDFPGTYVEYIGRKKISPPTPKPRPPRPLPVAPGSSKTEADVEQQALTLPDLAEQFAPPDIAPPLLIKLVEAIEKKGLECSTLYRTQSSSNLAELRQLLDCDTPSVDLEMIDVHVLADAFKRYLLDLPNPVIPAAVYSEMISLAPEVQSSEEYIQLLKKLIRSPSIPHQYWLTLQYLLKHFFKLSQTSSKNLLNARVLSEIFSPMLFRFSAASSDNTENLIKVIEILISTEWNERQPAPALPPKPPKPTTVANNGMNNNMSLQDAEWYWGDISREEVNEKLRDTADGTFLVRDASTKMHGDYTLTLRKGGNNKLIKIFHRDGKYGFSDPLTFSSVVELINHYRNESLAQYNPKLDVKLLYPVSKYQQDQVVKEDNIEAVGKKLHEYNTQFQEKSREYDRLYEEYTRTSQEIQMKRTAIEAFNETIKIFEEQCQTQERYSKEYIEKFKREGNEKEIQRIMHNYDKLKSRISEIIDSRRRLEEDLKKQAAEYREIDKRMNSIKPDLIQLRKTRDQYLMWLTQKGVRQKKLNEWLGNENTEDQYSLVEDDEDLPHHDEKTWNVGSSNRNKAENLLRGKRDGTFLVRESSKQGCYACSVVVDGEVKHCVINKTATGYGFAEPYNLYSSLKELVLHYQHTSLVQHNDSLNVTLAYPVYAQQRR
Outline: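 ADP-Glo luminescence tracked ADP formed by the mutant p110α(H1047R)/p85 complex during a 120 min room-temperature reaction with 25 µM ATP and 5.35 µg/ml PI(4,5)P2:PS lipid substrate, started after 30 min enzyme–compound–substrate pre-incubation (compound […], 50 mM HEPES pH 7.5). IC50 via four-parameter logistic equation.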

[3] = system: PI3Kα H1047R mutated cell line T-47D; assay: Phospho-AKT (Ser473) Inhibition Assay (HTRF), T-47D; assay type: cell-based; settings: for IC50: Homo sapiens, T47D, T-47D, 1 hour treatment, read-out: p-AKT Inhibition assay (S473) IC50 T-47D; for Selectivity: SK-BR-3/T-47D (p-AKT): p-AKT (S473) IC50 ratio
Outline: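 Cells seeded overnight in insulin-supplemented MEM, then treated 1 h with 11-point 1:3 compound dilutions (10 μM to 0.1 nM final, 0.1% DMSO). Lysates assayed for phospho-AKT Ser473 by HTRF; IC50 from 4-parameter logistic fit, normalised to DMSO (max) and 10 μM GDC0077 (min).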

PI3Kα (p110/p85) kinase (wild type, "WT"), sequence (P42336 whole entry): as the sequence (P42336 whole entry H1047R) above, with R1047H counted along it
PI3Kα (p110/p85) kinase (wild type, "WT"), sequence (P27986 whole entry partner): as the sequence (P27986 whole entry partner) above

SMILES | IC50 [1] | IC50 [2] | selectivity: WT/H1047R [2] | IC50 [3] | Selectivity: SK-BR-3/T-47D (p-AKT) [3]
Cc1cc(C(C)Nc2ccccc2C(=O)O)c2cc(-c3ccc(F)cc3)n(C3COC3)c(=O)c2c1 (centres unmarked) [Example 95, 2-((1-(3-(4-fluorophenyl)-7-methyl-2-(oxetan-3-yl)-1-oxo-1,2-dihydroisoquinolin-5-yl)ethyl)amino)benzoic acid] | 4340 nM | 91 nM | 47.6 | 25.6 nM | 52.9
COc1ncc(-c2cc3c(C(C)Nc4ccccc4C(=O)O)cc(C)cc3c(=O)n2C)cc1F (centres unmarked) [Example 58, 2-((1-(3-(5-fluoro-6-methoxypyridin-3-yl)-2,7-dimethyl-1-oxo-1,2-dihydroisoquinolin-5-yl)ethyl)amino)benzoic acid] | 9990 nM | 336 nM | 29.7 | 220 nM | 14.3
Cc1cc([C@H](C)Nc2ccccc2C(=O)O)c2cc(-c3ccccc3)n(C)c(=O)c2c1 [Example 31, (S)-2-((1-(2,7-dimethyl-1-oxo-3-phenyl-1,2-dihydroisoquinolin-5-yl)ethyl)amino)benzoic acid] | > 100000 nM | > 100000 nM | – | > 10000 nM | –
Cc1cc(C(C)Nc2ccccc2C(=O)O)c2cc(-c3ccccc3F)n(C)c(=O)c2c1 (centres unmarked) [Example 6, 2-((1-(3-(2-fluorophenyl)-2,7-dimethyl-1-oxo-1,2-dihydroisoquinolin-5-yl)ethyl)amino)benzoic acid] | 2880 nM | 162 nM | 17.8 | 62.4 nM | 51.5
Cc1cc(C(C)Nc2ccccc2C(=O)O)c2cc(-c3ccccc3C#N)n(C)c(=O)c2c1 (centres unmarked) [Example 32, 2-((1-(3-(2-cyanophenyl)-2,7-dimethyl-1-oxo-1,2-dihydroisoquinolin-5-yl)ethyl)amino)benzoic acid] | 61100 nM | 332 nM | 184.0 | 264 nM | >38
Cc1cc(C(C)Nc2ccccc2C(=O)O)c2cc(-c3nc4ccccc4s3)n(C)c(=O)c2c1 (centres unmarked) [Example 17, 2-((1-(3-(benzo[d]thiazol-2-yl)-2,7-dimethyl-1-oxo-1,2-dihydroisoquinolin-5-yl)ethyl)amino)benzoic acid] | 7780 nM | 255 nM | 30.5 | 58.8 nM | 13.5
Cc1cc(C(C)Nc2ccccc2C(=O)O)c2cc(-c3ccc(F)cc3)n(C)c(=O)c2c1 (centres unmarked) [Example 8, 2-((1-(3-(4-fluorophenyl)-2,7-dimethyl-1-oxo-1,2-dihydroisoquinolin-5-yl)ethyl)amino)benzoic acid] | 5960 nM | 183 nM | 32.6 | 66.4 nM | 37.7
Cc1cc(C(C)Nc2ccccc2C(=O)O)c2cc(-c3cccc(F)c3F)n(C)c(=O)c2c1 (centres unmarked) [Example 12, 2-((1-(3-(2,3-difluorophenyl)-2,7-dimethyl-1-oxo-1,2-dihydroisoquinolin-5-yl)ethyl)amino)benzoic acid] | 6690 nM | 175 nM | 38.2 | 55.3 nM | 39.0
Cc1cc([C@@H](C)Nc2ccccc2C(=O)O)c2cc(-c3ccc(F)cc3)n(C)c(=O)c2c1 [Example 34, (R)-2-((1-(3-(4-fluorophenyl)-2,7-dimethyl-1-oxo-1,2-dihydroisoquinolin-5-yl)ethyl)amino)benzoic acid] | 4180 nM | 107 nM | 39.0 | 20.2 nM | >494
Cc1cc(C(C)Nc2ccccc2C(=O)O)c2cc(C3=CCN(c4ccccc4)C3)n(C)c(=O)c2c1 (centres unmarked) [Example 76, 2-((1-(2,7-dimethyl-1-oxo-3-(1-phenyl-2,5-dihydro-1H-pyrrol-3-yl)-1,2-dihydroisoquinolin-5-yl)ethyl)amino)benzoic acid] | 11800 nM | 516 nM | 22.8 | 123 nM | 43.5
COc1ccc(-c2cc3c(C(C)Nc4ccccc4C(=O)O)cc(C)cc3c(=O)n2C)cc1 (centres unmarked) [Example 14, 2-((1-(3-(4-methoxyphenyl)-2,7-dimethyl-1-oxo-1,2-dihydroisoquinolin-5-yl)ethyl)amino)benzoic acid] | 3720 nM | 156 nM | 23.9 | 63.2 nM | 32.5
CC(Nc1ccccc1C(=O)O)c1cccc2c(=O)n(C)c(C#Cc3ccccc3)cc12 (centres unmarked) [Example 21, 2-((1-(2-methyl-1-oxo-3-(phenylethynyl)-1,2-dihydroisoquinolin-5-yl)ethyl)amino)benzoic acid] | 1340 nM | 121 nM | 11.1 | 35.5 nM | 165.3
Cc1cc(C(C)Nc2ccccc2C(=O)O)c2cc(-c3ccc(C(C)(C)O)nc3)n(C)c(=O)c2c1 (centres unmarked) [Example 55, 2-((1-(3-(6-(2-hydroxypropan-2-yl)pyridin-3-yl)-2,7-dimethyl-1-oxo-1,2-dihydroisoquinolin-5-yl)ethyl)amino)benzoic acid] | 26000 nM | 725 nM | 35.9 | 1560 nM | >6.4
Cc1cc(C(C)Nc2ccccc2C(=O)O)c2cc(-c3cnn(-c4ccc(C(N)=O)cn4)c3)n(C)c(=O)c2c1 (centres unmarked) [Example 16, 2-((1-(3-(1-(5-carbamoylpyridin-2-yl)-1H-pyrazol-4-yl)-2,7-dimethyl-1-oxo-1,2-dihydroisoquinolin-5-yl)ethyl)amino)benzoic acid] | 3670 nM | 240 nM | 15.3 | 1580 nM | >6.3
Cc1cc(C(C)Nc2ccccc2C(=O)O)c2cc(-c3ccc(F)c(F)c3)n(C)c(=O)c2c1 (centres unmarked) [Example 9, 2-((1-(3-(3,4-difluorophenyl)-2,7-dimethyl-1-oxo-1,2-dihydroisoquinolin-5-yl)ethyl)amino)benzoic acid] | 2710 nM | 187 nM | 14.5 | 70.9 nM | 51.4
Cc1cc(C(C)Nc2ccccc2C(=O)O)c2cc(-c3ccc(N4CCC(C)(O)CC4)nc3)n(C)c(=O)c2c1 (centres unmarked) [Example 72, 2-((1-(3-(6-(4-hydroxy-4-methylpiperidin-1-yl)pyridin-3-yl)-2,7-dimethyl-1-oxo-1,2-dihydroisoquinolin-5-yl)ethyl)amino)benzoic acid] | 20500 nM | 1070 nM | 19.2 | 633 nM | >15.79
Cc1cc(C(C)Nc2ccccc2C(=O)O)c2cc(-c3ccc4nn(C)cc4n3)n(C)c(=O)c2c1 (centres unmarked) [Example 39, 2-((1-(2,7-dimethyl-3-(2-methyl-2H-pyrazolo[4,3-b]pyridin-5-yl)-1-oxo-1,2-dihydroisoquinolin-5-yl)ethyl)amino)benzoic acid] | 10600 nM | 922 nM | 11.5 | 1110 nM | 5.6
